Measured values taken from patent publication US20180282279A1, “Pantothenamide Analogues” (Radboud Universitair Medisch Centrum, priority 2014, published 2018).
pIC50: −log10 of the molar value. Converted amounts (≈) assume the structure as drawn. Read-outs that look alike come from different tables or passages of the source.

Experiments:
[1] = system: Plasmodium falciparum NF54 parasites; test: P. falciparum asexual blood stage replication assay (SYBR Green); assay type: cell-based; details: NF54, 10% human serum, 72 incubation
Method: Compounds were tested on their ability to inhibit replication of the human malaria parasite Plasmodium falciparum. To this end, Plasmodium falciparum NF54 parasites were cultured in RPMI1640 medium supplemented with 367 μM hypoxanthine, 25 mM HEPES, 25 mM sodiumbicarbonate and 10% human type A serum in an automated large-scale culture system as described before (Transactions of the Royal Society of Tropical Medicine and Hygiene, 1982. 76: p. 812-818). Compounds were diluted in DMSO and subsequently in culture medium to reach a DMSO concentration of 0.2%. 50 μl of diluted compound was transferred to a black 96 well plate. A culture of P. falciparum strain NF54 malaria parasites was diluted to a parasitaemia of 0.5% and a hematocrit of 3%. 50 μl of this diluted culture was added to each well in the 96 well plate._The outermost wells of the plate were filled with sterile water to prevent evaporation. The established antimalarial dihydroartemisinin (DHA) in DMSO acted as a positive control (MIN signal), and 0.1% DMSO acted as a negative control (MAX signal). The plates were incubated for 72 at 37° C., 3% 02, 5% CO2, 93% N2. Changes in parasite replication relative to the controls were monitored using the DNA-marker SYBR Green as described previously (Antimicrob Agents Chemother 48:1803-6). Data were analyzed by logistic regression using the formula: Y=Bottom+(Top-Bottom)/(1+10̂((Log IC50−X)*HillSlope)) and a least squares method to find the best fit.
Using similar methods, IC50 values were determined for a variety of inverted pantothenamides, as listed in table 1 (see section: ‘Detailed description of the invention’)

Streptococcus pyogenes = test: Bacterial growth assay and MIC determination, S. pyogenes; assay type: cell-based; details: Streptococcus pyogenes; Table 1; most sensitive species S. pyogenes (SP); read-out: MIC (μg/ml) for most sensitive bacterial species
Method: (§1) Strains of Escherichia coli, Staphylococcus aureus and Staphylococcus epidermidis, were grown overnight in 1% Bacto tryptone medium (BD, Sparks, Md.). Streptococcus pyogenes was grown overnight in Bacto Todd Hewitt Broth medium (BD, Sparks, Md.). Cultures were then diluted 1:1,000 in fresh assay medium supplemented with or without 20% fetal bovine serum (FBS; HyClone, Celbio, Logan, Utah) and added to 96-well sterile enzyme-linked immunosorbent assay (ELISA) plates (100 μl per well). The compounds to be tested were diluted in the medium without serum and added to the bacteria (100 μl per well). Plates were incubated at 37° C., and bacterial growth was monitored over time by reading the optical density at 490 nm using a microplate reader (model 450; Bio-Rad Laboratories Inc., Hercules, Calif.). Streptococcus pneumoniae strains were grown to mid-log phase (OD620 of 0.3) and stored in 15% glycerol at […] till further use. Minimal inhibitory concentration (MIC) of antibiotics was determined according to standard procedures. Bacteria were diluted 10-fold in Mueller-Hinton medium (BD, Sparks, Md.) and added to 96-well sterile ELISA plates (150 μl per well). The compounds to be tested were diluted in the medium without serum and added to the bacteria (150 μl per well). Plates were incubated overnight at 37° C. in 5% CO2. The MIC was defined as the lowest concentration of compound at which no growth was visible with the naked eye.

[2] = system: Staphylococcus epidermidis; test: Bacterial growth assay and MIC determination, S. epidermidis; assay type: cell-based; details: Staphylococcus epidermidis; Table 1; most sensitive species S. epidermidis (SE); read-out: MIC (μg/ml) for most sensitive bacterial species
Method: as §1

[3] = system: S. aureus (SA), S. epidermidis (SE), S. pyogenes (SP), S. pneumoniae (SPn); test: MIC for most sensitive bacterial species (panel); assay type: cell-based; details: Table 1, no species named, read-out: MIC (μg/ml) for most sensitive bacterial species
Method: as §1

[4] = system: P. falciparum gametocytes; test: microbe, parasite or virus in culture; assay type: cell-based, Plasmodium falciparum; details: Plasmodium falciparum; 72 hour incubation; read-out: Gametocyte viability (pLDH) IC50
Method: Compounds were tested for their ability to affect the viability of gametocytes, the sexually committed blood stages of P. falciparum that underlie transmission to the mosquito vector. To this end, two different assays were performed. The first assay monitored pLDH activity as a measure of viability of gametocytes (J Antimicrob Chemother. 2013 September; 68(9):2048-58). The second assay monitored the ability of gametocytes to form a female gamete by detection of the gamete-specific marker Pfs25. Plasmodium falciparum NF54 parasites were cultured in RPMI1640 medium supplemented with 367 μM hypoxanthine, 25 mM HEPES, 25 mM sodiumbicarbonate and 10% human type A serum in an automated large-scale culture system as described before (Transactions of the Royal Society of Tropical Medicine and Hygiene, 1982. 76: p. 812-818). Cultures were treated with 50 mM N-acetyl-D-glucosamine from day 4 till day 9 to kill asexual parasites. On day 11 gametocytes were isolated by discontinuous 63% Percoll gradient centrifugation. Compounds were diluted in DMSO and subsequently in culture medium to reach a DMSO concentration of 0.2%. To measure the effect of compounds of pLDH activity, gametocytes were seeded at a density of 3.5×10^4 gametocytes per well in a black 384 well plate in 30 μl of culture medium, and 30 μl of diluted compound was added. Following a 72 hour incubation at 37° C., 98% humidity, 93% N2, 4% CO2 and 3% O2, gametocyte viability was measured by a modified plasmodium lactate dehydrogenase assay by using resazurin as a substrate as previously described (Nature, 2013. 504(7479): p. 248-53). Assays were performed in quadruplicate (two different plates with two different gametocyte batches) and all plates included controls MIN (1 μM DHA), MAX (0.1% DMSO) and a serial dilution of reference compound dihydroartemisinin (DHA).

[5] = system: P. falciparum gametocytes; test: Gametocyte female gametogenesis capacity assay (Pfs25 AlphaLISA); assay type: cell-based; details: Plasmodium falciparum; 72 hours incubation, Table 3; read-out: Gametocyte gametogenesis capacity (Pfs25) IC50
Method: To monitor compound effects on the ability of a gametocyte to form a female gamete, day 11 (stage IV) gametocytes were seeded at a density of 4×10^5 gametocytes per well in a V-bottom plate in 50 μl culture medium. 50 μl of diluted compound was added to the gametocytes (0.1% DMSO final concentration) and plates were incubated for 72 hours at 37° C., 98% humidity, 93% N2, 4% CO2 and 3% O2. Subsequently, gametogenesis was induced by adding xanthurenic acid to a final concentration of 40 μM and plates were incubated for 16 hours at 20° C. Gametes were detected in a homogeneous proximity immunoassay on basis of Pfs25 expression by use of AlphaLISA technology (Perkin Elmer). All steps were performed at 20° C. Gametes were washed twice with PBS, lysed for 15 min in 10 μl 10 mM Tris pH 8.0/1% laurylsarcosyl/1 mM phenylmethanesulfonyl fluoride and combined with 10 μl 5 nM biotinylated mouse anti-Pfs25 monoclonal antibody 32F6244 in a white 384 well optiplate (Perkin Elmer). After 1 hour incubation 15 μl of 33 μg/ml acceptorbeads coated with mouse anti-Pfs25 monoclonal antibody 32F81 were added. After 1 hour incubation, 15 μl 33 μg/ml Streptavidin-conjugated donorbeads were added. Finally, after 1 hour incubation luminescence signals were monitored at the 615 nm emission wavelength following excitation at 680 nm using a fluorometer (Biotek Synergy 2). All compounds were tested in duplicate (24 hr) or triplicate (1 and 72 hr). Controls included MIN (0.1 μM epoxomicin) and MAX (0.1% DMSO). Data were analyzed by logistic regression using the formula: Y=Bottom+(Top−Bottom)/(1+10̂((Log IC50−X)*HillSlope)) and a least squares method to find the best fit.

Staphylococcus aureus = test: Bacterial growth assay and MIC determination, S. aureus; assay type: cell-based; details: Staphylococcus aureus, Table 1; most sensitive species S. aureus (SA); read-out: MIC (μg/ml) for most sensitive bacterial species
Method: as §1

[6] = Streptococcus pneumoniae, marked *: not tested for S. pneumoniae

IC50 [1] [µM]	MIC (Streptococcus pyogenes) [µg/mL]	Structure (SMILES)	also measured
2.78	8 (≈ 27.7 µM)	CC(C)CCC(=O)NCCNC(=O)[C@H](O)C(C)(C)CO [CXP14.18-005]	–
5.15	16 (≈ 58.7 µM)	C=CCCC(=O)NCCNC(=O)[C@H](O)C(C)(C)CO [CXP14.18-007]	–
0.74	16 (≈ 55.9 µM)	C=CCCCC(=O)NCCNC(=O)[C@H](O)C(C)(C)CO [CXP14.18-008]	–
0.71	16 (≈ 53.3 µM)	C=CCCCCC(=O)NCCNC(=O)[C@H](O)C(C)(C)CO [CXP14.18-010]	–
> 10	–	CCCCCCCCCCC(=O)NCCNC(=O)[C@H](O)C(C)(C)CO [CXP14.18-012]	MIC [2]: 8 µg/mL (≈ 22.3 µM)
4.93	16 (≈ 55.9 µM)	C=CC(C)CC(=O)NCCNC(=O)[C@H](O)C(C)(C)CO (stereo partly drawn) [CXP14.18-014]	–
0.81	32 (≈ 113 µM)	C#CCCCC(=O)NCCNC(=O)[C@H](O)C(C)(C)CO [CXP14.18-016]	–
0.17	–	CCC(=O)NCCNC(=O)[C@H](O)C(C)(C)CO [CXP14.18-019]	MIC [3, 6]: > 32 µg/mL
2	32 (≈ 123 µM)	CCCC(=O)NCCNC(=O)[C@H](O)C(C)(C)CO [CXP14.18-020]	–
0.85	2 (≈ 7.29 µM)	CCCCC(=O)NCCNC(=O)[C@H](O)C(C)(C)CO [CXP14.18-028]	–
0.62	8 (≈ 26.1 µM)	CSCCCC(=O)NCCNC(=O)[C@H](O)C(C)(C)CO [CXP14.18-034]	–
> 10	16 (≈ 55.1 µM)	CCOCCC(=O)NCCNC(=O)[C@H](O)C(C)(C)CO [CXP14.18-035]	–
1.34	4 (≈ 13.1 µM)	CCCSCC(=O)NCCNC(=O)[C@H](O)C(C)(C)CO [CXP14.18-037]	–
0.37	8 (≈ 26.1 µM)	CCSCCC(=O)NCCNC(=O)[C@H](O)C(C)(C)CO [CXP14.18-038]	–
3.9	16 (≈ 51.9 µM)	CC(C)(CO)[C@@H](O)C(=O)NCCNC(=O)Cc1ccccc1 [CXP18.6-007]	–
0.57	–	CC(C)(CO)[C@@H](O)C(=O)NCCNC(=O)CCCc1ccccc1 [CXP18.6-008]	MIC [2]: 16 µg/mL (≈ 47.6 µM)
9.2	–	CC(C)(CO)[C@@H](O)C(=O)NCCCNC(=O)Cc1ccccc1 [CXP18.6-009]	MIC ([3]; tested for SA, SE, SP and SPn): > 32 µg/mL
7.5	–	CC(C)(CO)[C@@H](O)C(=O)NCCCNC(=O)CCc1ccccc1 [CXP18.6-010]	MIC ([3]; tested for SA, SE, SP and SPn): > 32 µg/mL

IC50 [1] [µM]	MIC (Streptococcus pyogenes) [µg/mL]	Structure (SMILES)	also measured
0.1	16 (≈ 47 µM)	CC(C)(CO)[C@@H](O)C(=O)NCCNC(=O)CCc1cccc(F)c1 [CXP18.6-018]	–
0.42	–	CC(C)(CO)[C@@H](O)C(=O)NCCNC(=O)CCc1ccc(F)cc1 [CXP18.6-019]	MIC [2]: 32 µg/mL (≈ 94 µM)
1	–	COc1ccc(CCC(=O)NCCNC(=O)[C@H](O)C(C)(C)CO)cc1 [CXP18.6-022]	MIC ([3]; tested for SA, SE, SP and SPn): > 32 µg/mL
0.58	–	CC(C)(CO)[C@@H](O)C(=O)NCCNC(=O)CCc1ccccc1Cl [CXP18.6-027]	MIC ([3]; tested for SA, SE, SP and SPn): > 32 µg/mL
0.19	–	CC(C)(CO)[C@@H](O)C(=O)NCCNC(=O)CCc1ccc(Cl)cc1 [CXP18.6-028]	MIC ([3]; tested for SA, SE, SP and SPn): > 32 µg/mL
6.4	–	CC(C)(CO)[C@@H](O)C(=O)NCCNC(=O)CCc1ccccc1C(F)(F)F [CXP18.6-038]	MIC [2]: 32 µg/mL (≈ 82 µM)
0.21	–	CC(C)(CO)[C@@H](O)C(=O)NCCNC(=O)CCc1ccc(C(F)(F)F)cc1 [CXP18.6-042]	MIC ([3]; tested for SA, SE, SP and SPn): > 32 µg/mL
0.15	–	CC(C)(C)c1ccc(CCC(=O)NCCNC(=O)[C@H](O)C(C)(C)CO)cc1 [CXP18.6-043]	MIC ([3]; tested for SA, SE, SP and SPn): > 32 µg/mL
0.057	32 (≈ 97.4 µM)	CC(C)(CO)[C@@H](O)C(=O)NCCNC(=O)CCc1ccsc1 [CXP18.6-046]	pIC50 [4]: < 5.00; pIC50 [5]: 6.40
0.1	8 (≈ 24.4 µM)	CC(C)(CO)[C@@H](O)C(=O)NCCNC(=O)CCc1cccs1 [CXP18.6-047]	pIC50 [4]: < 5.00; pIC50 [5]: 6.77
2.2	–	CC(C)(CO)[C@@H](O)C(=O)NCCNC(=O)/C=C/c1ccccc1 [CXP18.6-048]	MIC [2]: 16 µg/mL (≈ 49.9 µM)
1.6	–	CC(C)(CO)[C@@H](O)C(=O)NCCNC(=O)CCc1ccccn1 [CXP18.6-055]	MIC [2]: 32 µg/mL (≈ 99 µM)
0.47	–	CC(C)(CO)[C@@H](O)C(=O)NCCNC(=O)CCc1ccncc1 [CXP18.6-056]	MIC [3, 6]: > 32 µg/mL
0.4	–	CC(C)(CO)[C@@H](O)C(=O)NCCNC(=O)CCc1ccco1 [CXP18.6-057]	MIC (Staphylococcus aureus): 16 µg/mL (≈ 51.2 µM); MIC [2]: 16 µg/mL (≈ 51.2 µM)
0.11	–	CC(C)(CO)[C@@H](O)C(=O)NCCNC(=O)CCc1ccc(F)cc1F [CXP18.6-069]	MIC [2]: 4 µg/mL (≈ 11.2 µM)
0.004	–	C[C@@H](CNC(=O)[C@H](O)C(C)(C)CO)NC(=O)CCc1ccccc1F [MMV689258]	MIC ([3]; tested for SA, SE, SP and SPn): > 32 µg/mL
0.21	–	C[C@H](CNC(=O)[C@H](O)C(C)(C)CO)NC(=O)CCc1ccccc1F [MMV689260]	MIC ([3]; tested for SA, SE, SP and SPn): > 32 µg/mL
